What was measured:
[1] = tested on: CDK8 (phosphorylation of STAT1 at serine 727 in A549 cells); assay: Cell based Phospho-STAT1 assay (IFNγ-stimulated A549 cells, AlphaLISA); conditions: Homo sapiens, A549, A549 cells, phospho-STAT1 after IFNγ stimulation
Procedure, shortened: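 A549 cells given serial compound dilutions for 1 h at 37 °C, then stimulated with IFNγ at 10 ng/mL final for 30 min. Lysate STAT1 Ser727 phosphorylation measured by AlphaLISA; % inhibition vs stimulated/unstimulated DMSO controls, IC50 by nonlinear regression.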

[2] = tested on: CDK8 (TCF/LEF luciferase reporter in HCT116 cells); assay: Cell based TCF/LEF reporter assay (HCT116+TCF/LEF luciferase); conditions: Homo sapiens, HCT-116, 24 h
Procedure, shortened: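 Luciferase readout was corrected for viability (CellTiter-Fluor) and scaled between DMSO high and 10 uM CCT251545 low controls, giving IC50 by nonlinear regression. Compounds, serially diluted, were incubated 24 h at 37 °C on HCT116 clones stably expressing a TCF/LEF-driven luciferase reporter.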

Row | SMILES | IC50 [1] [µM] | IC50 [2] [µM]
1 | CC(=O)Nc1cc(-c2cnn3ccnc(C4=CCC(C#N)CC4)c23)ccn1 (stereo not shown) [Compound P-0080, N-(4-(4-(4-cyanocyclohex-1-ene-1-yl)pyrazolo[1,5-a]pyrazin-3-yl)pyridin-2-yl)acetamide] | 0.0001 to 0.1 | 0.0001 to 0.1
2 | CNC(=O)c1ccc2cc(-c3cnc4[nH]ccc4c3C3=CCC(C#N)CC3)ccc2c1 (stereo not shown) [Compound P-0268, 6-(4-(4-cyanocyclohex-1-en-1-yl)-1H-pyrrolo[2,3-b]pyridin-5-yl)-N-methyl-2-naphthamide] | 0.0001 to 0.1 | 0.0001 to 0.1
3 | CN1CCN(C(=O)c2ccc3cc(-c4cnc5[nH]ccc5c4N4CCC(C#N)CC4)ccc3c2)CC1 [Compound P-0328, 1-(5-(6-(4-methylpiperazine-1-carbonyl)naphthalen-2-yl)-1H-pyrrolo[2,3-b]pyridin-4-yl)piperidine-4-carbonitrile] | 0.0001 to 0.1 | 0.0001 to 0.1
4 | O=C1NCCC12CCN(c1cccn3ncc(-c4ccc(OCCOC5CCOCC5)cc4)c13)CC2 [Compound P-0145, 8-(3-(4-(2-((tetrahydro-2H-pyran-4-yl)oxy)ethoxy)phenyl)pyrazolo[1,5-a]pyridin-4-yl)-2,8-diazaspiro[4.5]decan-1-one] | 0.0001 to 0.1 | 0.0001 to 0.1
5 | Cc1n[nH]c2cc(-c3cnn4ccnc(C5=CCC(C#N)CC5)c34)ccc12 (stereo not shown) [Compound P-0071, 4-(3-(3-methyl-1H-indazol-6-yl)pyrazolo[1,5-a]pyrazin-4-yl)cyclohex-3-ene-1-carbonitrile] | 0.0001 to 0.1 | 0.0001 to 0.1
6 | N#CC1CCN(c2cccn3ncc(-c4ccc(S(=O)(=O)N5CCOCC5)cc4)c23)CC1 [Compound P-0255, 1-(3-(4-(morpholino-sulfonyl)phenyl)pyrazolo[1,5-a]pyridin-4-yl)piperidine-4-carbonitrile] | 1 to 10 | 1 to 10
7 | Cn1cc(-c2ccc(-c3cnc4cccc(C5=CCC(C#N)CC5)n34)cc2)cn1 (stereo not shown) [Compound P-0445, 4-(3-(4-(1-methyl-1H-pyrazol-4-yl)phenyl)imidazo[1,2-a]pyridin-5-yl)cyclohex-3-ene-1-carbonitrile] | 0.0001 to 0.1 | 0.0001 to 0.1
8 | CC(C)(O)Cn1ncc2cc(-c3cnc4[nH]ccc4c3C3=CCC(C#N)CC3)ccc21 (stereo not shown) [Compound P-0113] | 0.0001 to 0.1 | 0.0001 to 0.1
9 | COc1ccc2cc(-c3cnn4cccc(C5CCC(C#N)CC5)c34)ccc2n1 (stereo not shown) [Compound P-0195, 4-(3-(2-methoxyquinolin-6-yl)pyrazolo[1,5-a]pyridin-4-yl)cyclohexane-1-carbonitrile] | 0.0001 to 0.1 | 0.0001 to 0.1
10 | N#CC1CC=C(c2cccn3ncc(-c4ccc5ncccc5c4)c23)CC1 (stereo not shown) [Compound P-0127, 4-(3-(quinolin-6-yl)pyrazolo[1,5-a]pyridin-4-yl)cyclohex-3-ene-1-carbonitrile] | 0.0001 to 0.1 | 0.0001 to 0.1
11 | CC(C)(O)Cn1cc(-c2ccc(-c3cnn4ccnc(C5=CCC(C#N)CC5)c34)cc2F)cn1 (stereo not shown) [Compound P-0163, 4-(3-(3-fluoro-4-(1-(2-hydroxy-2-methylpropyl)-1H-pyrazol-4-yl)phenyl)pyrazolo[1,5-a]pyrazin-4-yl)cyclohex-3-ene-1-carbonitrile] | 0.0001 to 0.1 | 0.0001 to 0.1
12 | Cn1cc(-c2ccc(-c3cnn4ccnc(C5CCC(C(N)=O)CC5)c34)cc2)cn1 (stereo not shown) [Compound P-0247, 4-(3-(4-(1-methyl-1H-pyrazol-4-yl)phenyl)pyrazolo[1,5-a]pyrazin-4-yl)cyclohexane-1-carboxamide] | 0.0001 to 0.1 | 0.0001 to 0.1
13 | CS(=O)(=O)C1CCC(Oc2cccc3ncc(-c4ccc(-c5cnn(C(F)F)c5)cc4)n23)C1 (stereo not shown) [Compound P-0321, 3-(4-(1-(difluoromethyl)-1H-pyrazol-4-yl)phenyl)-5-((3-(methylsulfonyl)cyclopentyl)oxy) imidazo[1,2-a]pyridine] | 1 to 10 | 1 to 10
14 | CCCS(=O)(=O)Nc1ccc2cc(-c3cnn4ccnc(C#CC(C)(C)C(N)=O)c34)ccc2c1 [Compound P-0069, 2,2-dimethyl-4-(3-(6-(propylsulfonamido)naphthalen-2-yl)pyrazolo[1,5-a]pyrazin-4-yl)but-3-ynamide] | 0.0001 to 0.1 | 0.0001 to 0.1
15 | CC(C)(C#Cc1nccn2ncc(-c3ccc4c(cnn4C(F)F)c3)c12)C(N)=O [Compound P-0095, 4-(3-(1-(difluoromethyl)-1H-indazol-5-yl)pyrazolo[1,5-a]pyrazin-4-yl)-2,2-dimethylbut-3-ynamide] | 0.0001 to 0.1 | 0.0001 to 0.1
16 | CS(=O)(=O)Cn1cc(-c2ccc(-c3cnn4ccnc(C5=CCC(C#N)CC5)c34)cc2)cn1 (stereo not shown) [Compound P-0028, 4-(3-(4-(1-((methylsulfonyl)methyl)-1H-pyrazol-4-yl)phenyl)pyrazolo[1,5-a]pyrazin-4-yl)cyclohex-3-ene-1-carbonitrile] | 0.0001 to 0.1 | 0.0001 to 0.1

Row | SMILES | IC50 [1] [µM] | IC50 [2] [µM]
17 | N#CC1CC=C(c2nccn3ncc(-c4ccc(F)cc4)c23)CC1 (stereo not shown) [Compound P-0089, 4-(3-(4-fluorophenyl)pyrazolo[1,5-a]pyrazin-4-yl)cyclohex-3-ene-1-carbonitrile] | 0.0001 to 0.1 | 0.1 to 1
18 | Cn1cc(-c2ccc(-c3cnc4[nH]ccc4c3C#CC(C)(C)O)cc2)cn1 [Compound P-0341, 2-methyl-4-(5-(4-(1-methyl-1H-pyrazol-4-yl)phenyl)-1H-pyrrolo[2,3-b]pyridin-4-yl)but-3-yn-2-ol] | 0.0001 to 0.1 | 0.0001 to 0.1
19 | N#CC1CC=C(c2nccn3ncc(-c4ccnc(NC5CCCC5)c4)c23)CC1 (stereo not shown) [Compound P-0074] | 0.1 to 1 | 0.1 to 1
20 | N#CC1CCC(c2nccn3ncc(-c4ccc(-c5cnn(CC(F)F)c5)cc4)c23)CC1 (stereo not shown) [Compound P-0021, (1s,4s)-4-(3-(4-(1-(2,2-difluoroethyl)-1H-pyrazol-4-yl)phenyl)pyrazolo[1,5-a]pyrazin-4-yl)cyclohexane-1-carbonitrile] | 0.0001 to 0.1 | 0.0001 to 0.1
21 | Cn1cc(-c2ccc(-c3cnn4cccc(C#CC(C)(C)C(N)=O)c34)cc2)cn1 [Compound P-0295, 2,2-dimethyl-4-(3-(4-(1-methyl-1H-pyrazol-4-yl)phenyl)pyrazolo[1,5-a]pyridin-4-yl)but-3-ynamide] | 0.0001 to 0.1 | 0.0001 to 0.1
22 | CC(C)(O)Cn1cc(-c2ccc(-c3cnn4ccnc(C5=CCC(C#N)CC5)c34)cc2Cl)cn1 (stereo not shown) [Compound P-0042, 4-(3-(3-chloro-4-(1-(2-hydroxy-2-methylpropyl)-1H-pyrazol-4-yl)phenyl)pyrazolo[1,5-a]pyrazin-4-yl)cyclohex-3-ene-1-carbonitrile] | 0.0001 to 0.1 | 0.0001 to 0.1
23 | CC(C)(O)Cn1cc(-c2ccc(-c3cnn4ccnc(C5CCC(C#N)CC5)c34)cc2Cl)cn1 (stereo not shown) [Compound P-0031, (1s,4s)-4-(3-(3-chloro-4-(1-(2-hydroxy-2-methylpropyl)-1H-pyrazol-4-yl)phenyl)pyrazolo[1,5-a]pyrazin-4-yl)cyclohexane-1-carbonitrile] | 0.0001 to 0.1 | 0.0001 to 0.1
24 | N#CC1CCC(c2nccn3ncc(-c4ccc(-c5cnn(CCN6CCCC6)c5)cc4)c23)CC1 (stereo not shown) [Compound P-0017, (1s,4s)-4-(3-(4-(1-(2-(pyrrolidin-1-yl)ethyl)-1H-pyrazol-4-yl)phenyl)pyrazolo[1,5-a]pyrazin-4-yl)cyclohexane-1-carbonitrile] | 0.0001 to 0.1 | 0.0001 to 0.1
25 | N#CC1CCN(c2cccn3ncc(-c4ccc(NC(=O)OCc5ccccc5)cc4)c23)CC1 [Compound P-0259, benzyl (4-(4-(4-cyanopiperidin-1-yl)pyrazolo[1,5-a]pyridin-3-yl)phenyl)carbamate] | 0.1 to 1 | 0.1 to 1
26 | N#CC1CCN(c2cccn3ncc(-c4ccc(C(=O)N5CCOCC5)cc4)c23)CC1 [Compound P-0258, 1-(3-(4-(morpholine-4-carbonyl)phenyl)pyrazolo[1,5-a]pyridin-4-yl)piperidine-4-carbonitrile] | 0.1 to 1 | 0.1 to 1
27 | N#CC1CCC(c2cccn3ncc(-c4ccc(-n5ccnn5)cc4)c23)CC1 (mixture of isomers) [Compound P-0217, (1r,4r) and (1s,4s)-4-[3-[4-(triazol-1-yl)phenyl]pyrazolo[1,5-a]pyridin-4-yl]cyclohexanecarbonitrile] | 0.0001 to 0.1 | 0.0001 to 0.1
28 | CC(C)(O)Cn1ncc2cc(-c3cnn4ccnc(C#CC(C)(C)C(N)=O)c34)ccc21 [Compound P-0091, 4-(3-(1-(2-hydroxy-2-methylpropyl)-1H-indazol-5-yl)pyrazolo[1,5-a]pyrazin-4-yl)-2,2-dimethylbut-3-ynamide] | 0.0001 to 0.1 | 0.0001 to 0.1
29 | CC(C)(C#Cc1cccn2ncc(-c3ccc4c(cnn4C(F)F)c3)c12)C(N)=O [Compound P-0068, 4-(3-(1-(difluoromethyl)-1H-indazol-5-yl)pyrazolo[1,5-a]pyridin-4-yl)-2,2-dimethylbut-3-ynamide] | 0.0001 to 0.1 | 0.0001 to 0.1
30 | N#CC1CCC(c2nccn3ncc(-c4ccc(-n5ccnn5)cc4)c23)CC1 (stereo not shown) [Compound P-0211, 4-(3-(4-(1H-1,2,3-triazol-1-yl)phenyl)pyrazolo[1,5-a]pyrazin-4-yl)cyclohexane-1-carbonitrile] | 0.0001 to 0.1 | 0.1 to 1
31 | N#CC1CCC(c2nccn3ncc(-c4ccc(-c5cnn(CCN6CCOCC6)c5)cc4)c23)CC1 (stereo not shown) [Compound P-0016, (1s,4s)-4-(3-(4-(1-(2-morpholinoethyl)-1H-pyrazol-4-yl)phenyl)pyrazolo[1,5-a]pyrazin-4-yl)cyclohexane-1-carbonitrile] | 0.0001 to 0.1 | 0.0001 to 0.1
32 | Cc1nn(C)cc1-c1ccc(-c2cnn3cccc(C#CC(C)(C)O)c23)cc1 [Compound P-0311, 4-(3-(4-(1,3-dimethyl-1H-pyrazol-4-yl)phenyl)pyrazolo[1,5-a]pyridin-4-yl)-2-methylbut-3-yn-2-ol] | 0.0001 to 0.1 | 0.1 to 1

Reference: patent publication US10703757B2, “Compounds and methods for CDK8 modulation and indications therefor” (Plexxikon Inc., priority 2016, dated 2020)
